Reference: the supplement of paper PMC4862054

Legend:
Settings in all cases: incubation time: 72 h
[1] = test system: CAL-148; assay: drug sensitivity score (DSS), CellTiter-Glo (DSS (AUC-based score)); higher = stronger drug effect (viability inhibition or cytotoxicity); extreme values may be limits of the assay
Method in brief: (§1)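 Normalisation on every plate relied on 0.1 % DMSO and a positive kill control. The plates, 384-well format, held compound at 5 concentrations 10-fold apart across a compound-specific 10,000-fold range, and breast cancer cell lines in 20 µl suspension were incubated on them for 72 h before CellTox Green and then CellTiter-Glo readings. The drug sensitivity score derives from the area under the fitted dose-response curve.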

[2] = test system: CAL-51; assay: as above
Method in brief: as §1

[3] = test system: CAL-85-1; assay: as above
Method in brief: as §1

[4] = test system: HCC1599; assay: as above
Method in brief: as §1

[5] = test system: HCC1937; assay: as above
Method in brief: as §1

[6] = test system: HDQ-P1; assay: as above
Method in brief: as §1

[7] = test system: Hs578T; assay: as above
Method in brief: as §1

[8] = test system: MDA-MB-231; assay: as above
Method in brief: as §1

[9] = test system: MDA-MB-468; assay: as above
Method in brief: as §1

[10] = test system: MFM-223; assay: as above
Method in brief: as §1

[11] = test system: BT-474; assay: normalised response (% of control), CellTox Green; higher = less cell death (100 = DMSO, 0 = benzethonium chloride kill control)
Method in brief: (§2)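 Breast cancer cell lines were exposed for 72 h in 384-well plates to compound at 5 concentrations, 10-fold apart, covering a 10,000-fold range fixed for each compound. Plates were read for CellTox Green fluorescence and CellTiter-Glo luminescence and normalised to 0.1 % DMSO (100) and a positive kill control (0). Each value is the normalised signal at one concentration of the series.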

[12] = test system: BT-549; assay: as above
Method in brief: as §2

[13] = test system: CAL-120; assay: as above
Method in brief: as §2

[14] = test system: CAL-148; assay: as above
Method in brief: as §2

[15] = test system: CAL-51; assay: as above
Method in brief: as §2

[16] = test system: CAL-85-1; assay: as above
Method in brief: as §2

[17] = test system: DU-4475; assay: as above
Method in brief: as §2

[18] = test system: HCC1143; assay: as above
Method in brief: as §2

[19] = test system: HCC1599; assay: as above
Method in brief: as §2

[20] = test system: HCC1937; assay: as above
Method in brief: as §2

[21] = test system: HDQ-P1; assay: as above
Method in brief: as §2

[22] = test system: Hs578T; assay: as above
Method in brief: as §2

[23] = test system: MCF-10A; assay: as above
Method in brief: as §2

[24] = test system: MDA-MB-231; assay: as above
Method in brief: as §2

[25] = test system: MDA-MB-436; assay: as above
Method in brief: as §2

[26] = test system: MDA-MB-453; assay: as above
Method in brief: as §2

[27] = test system: MDA-MB-468; assay: as above
Method in brief: as §2

[28] = test system: MFM-223; assay: as above
Method in brief: as §2

SMILES | drug sensitivity score [1] | drug sensitivity score [2] | drug sensitivity score [3] | drug sensitivity score [4] | drug sensitivity score [5] | drug sensitivity score [6] | drug sensitivity score [7] | drug sensitivity score [8] | drug sensitivity score [9] | drug sensitivity score [10] | normalised response [11] [%] | normalised response [12] [%] | normalised response [13] [%] | normalised response [14] [%] | normalised response [15] [%] | normalised response [16] [%] | normalised response [17] [%] | normalised response [18] [%] | normalised response [19] [%] | normalised response [20] [%] | normalised response [21] [%] | normalised response [22] [%] | normalised response [23] [%] | normalised response [24] [%] | normalised response [25] [%] | normalised response [26] [%] | normalised response [27] [%] | normalised response [28] [%]
C=CCNC1=C2C[C@@H](C)C[C@H](OC)[C@H](O)[C@@H](C)/C=C(\C)[C@H](OC(N)=O)[C@@H](OC)/C=C\C=C(/C)C(=O)NC(=CC1=O)C2=O [Tanespimycin] | 16.3 | 20.7 | 13.3 | 8.46 | 16.5 | 19 | 15.6 | 14.5 | 11.3 | 16.8 | – | – | – | – | – | – | – | – | – | – | – | – | – | – | – | – | – | –
Cc1ccc(F)c(NC(=O)Nc2ccc(-c3cccc4[nH]nc(N)c34)cc2)c1 [Linifanib] | 0 | 1.94 | 0 | 0 | 0 | 0 | 0 | 0 | 0 | 0 | – | – | – | – | – | – | – | – | – | – | – | – | – | – | – | – | – | –
CO[C@H]1C[C@@H]2CC[C@@H](C)[C@@](O)(O2)C(=O)C(=O)N2CCCC[C@H]2C(=O)O[C@H]([C@H](C)C[C@@H]2CC[C@@H](OC(=O)C(C)(CO)CO)[C@H](OC)C2)CC(=O)[C@H](C)/C=C(\C)[C@@H](O)[C@@H](OC)C(=O)[C@H](C)C[C@H](C)/C=C/C=C/C=C/1C [Temsirolimus] (100 nM) | – | – | – | – | – | – | – | – | – | – | 91.2 | 130 | 102 | 87.2 | 103 | 80 | 98.8 | 130 | 106 | 110 | 109 | -18.9 | 91.2 | 123 | 97.1 | 107 | 149 | 90.9
Cc1ccc(F)c(NC(=O)Nc2ccc(-c3cccc4[nH]nc(N)c34)cc2)c1 [Linifanib] (100 nM) | – | – | – | – | – | – | – | – | – | – | 101 | 110 | 101 | 108 | 101 | 96.3 | 107 | 122 | 106 | 117 | 112 | 66.5 | 107 | 116 | 66.4 | 108 | 66.5 | 103
S=c1[nH]cnc2nc[nH]c12 [Mercaptopurine] (1000 nM) | – | – | – | – | – | – | – | – | – | – | 94.6 | 77.2 | 104 | 102 | 102 | 104 | 97.6 | 88.2 | 92.1 | 23.3 | 97.3 | 104 | 108 | 96.1 | 100 | 101 | 155 | 85.8
CN1CC[C@H](c2c(O)cc(O)c3c(=O)cc(-c4ccccc4Cl)oc23)[C@H](O)C1 [Alvocidib] (10000 nM) | – | – | – | – | – | – | – | – | – | – | 88.8 | 66.1 | 81.8 | 92 | 63.9 | -9.96 | 94.9 | 92.5 | 86 | 92.3 | 71.5 | 12.8 | -1.97 | 25.4 | 100 | 102 | 52.6 | 47.7
C=CCNC1=C2C[C@@H](C)C[C@H](OC)[C@H](O)[C@@H](C)/C=C(\C)[C@H](OC(N)=O)[C@@H](OC)/C=C\C=C(/C)C(=O)NC(=CC1=O)C2=O [Tanespimycin] (1000 nM) | – | – | – | – | – | – | – | – | – | – | 76.9 | 99.8 | 94.5 | 28.2 | 48.8 | 68.2 | 62.4 | 91.2 | 95.6 | 120 | 60.1 | 98.9 | 31.3 | 36.8 | 24.3 | 93.3 | 121 | 98.9
OC[C@H]1O[C@@H](n2cnc3c2N=CNC[C@H]3O)C[C@@H]1O [Pentostatin] (10000 nM) | – | – | – | – | – | – | – | – | – | – | 103 | 88.3 | 104 | 102 | 102 | 85.2 | 97.4 | 110 | 95.2 | 103 | 101 | 103 | 103 | 118 | 97.6 | 104 | 112 | 90.8
Nc1ccn([C@@H]2O[C@H](CO)[C@@H](O)[C@@H]2O)c(=O)n1 [Cytarabine] (10000 nM) | – | – | – | – | – | – | – | – | – | – | 100 | 99.4 | 108 | 69.2 | 26.1 | 91.7 | 101 | 64.6 | 95.5 | 96.1 | 111 | 134 | 48.4 | 113 | 93.6 | 104 | 156 | 107
Cc1c2oc3c(C)ccc(C(=O)N[C@@H]4C(=O)N[C@H](C(C)C)C(=O)N5CCC[C@H]5C(=O)N(C)CC(=O)N(C)[C@@H](C(C)C)C(=O)O[C@@H]4C)c3nc-2c(C(=O)N[C@@H]2C(=O)N[C@H](C(C)C)C(=O)N3CCC[C@H]3C(=O)N(C)CC(=O)N(C)[C@@H](C(C)C)C(=O)O[C@@H]2C)c(N)c1=O [Dactinomycin] (1000 nM) | – | – | – | – | – | – | – | – | – | – | 89.6 | 93 | 101 | 79.9 | 95.1 | 13.8 | 104 | 59.3 | 113 | 124 | 94.9 | 40.6 | 41.4 | 52.3 | 116 | 104 | 52.8 | 60.5
C=CCNC1=C2C[C@@H](C)C[C@H](OC)[C@H](O)[C@@H](C)/C=C(\C)[C@H](OC(N)=O)[C@@H](OC)/C=C\C=C(/C)C(=O)NC(=CC1=O)C2=O [Tanespimycin] (10000 nM) | – | – | – | – | – | – | – | – | – | – | 62.6 | 109 | 84.2 | 39.8 | 58.7 | 75.6 | 69 | 52.5 | 108 | 102 | 55.1 | 61.2 | 39.1 | 15.4 | 99.4 | 87.4 | 100 | 86
CC[C@]1(O)C[C@@H]2CN(CCc3c([nH]c4ccccc34)[C@@](C(=O)OC)(c3cc4c(cc3OC)N(C)[C@H]3[C@@](O)(C(=O)OC)[C@H](OC(C)=O)[C@]5(CC)C=CCN6CC[C@]43[C@@H]65)C2)C1 [Vinblastine] (1000 nM) | – | – | – | – | – | – | – | – | – | – | 75.3 | 61.4 | 89.8 | 89.4 | 20.7 | 85.4 | 95.5 | 34.2 | 75.5 | 92.1 | 101 | -39.7 | 50.5 | 19.5 | 83.1 | 96.5 | 70.2 | 51.2
Nc1ccn([C@@H]2O[C@H](CO)[C@@H](O)[C@@H]2O)c(=O)n1 [Cytarabine] (1000 nM) | – | – | – | – | – | – | – | – | – | – | 103 | 111 | 106 | 69.9 | 37.4 | 109 | 109 | 112 | 104 | 117 | 107 | 85.2 | 115 | 106 | 83.5 | 112 | 159 | 97.5
CN1CC[C@H](c2c(O)cc(O)c3c(=O)cc(-c4ccccc4Cl)oc23)[C@H](O)C1 [Alvocidib] (1000 nM) | – | – | – | – | – | – | – | – | – | – | 90.2 | 83.2 | 85.3 | -101 | 77.1 | 24.9 | 85.3 | 85.1 | 50.4 | 115 | 58 | 65.7 | 18.7 | 30.7 | 80.5 | 97.7 | 109 | 56.6
Cc1c2oc3c(C)ccc(C(=O)N[C@@H]4C(=O)N[C@H](C(C)C)C(=O)N5CCC[C@H]5C(=O)N(C)CC(=O)N(C)[C@@H](C(C)C)C(=O)O[C@@H]4C)c3nc-2c(C(=O)N[C@@H]2C(=O)N[C@H](C(C)C)C(=O)N3CCC[C@H]3C(=O)N(C)CC(=O)N(C)[C@@H](C(C)C)C(=O)O[C@@H]2C)c(N)c1=O [Dactinomycin] (100 nM) | – | – | – | – | – | – | – | – | – | – | 76.7 | 33.4 | 85.4 | 23.9 | 29.5 | 31.6 | 81.8 | 91 | 75.9 | 109 | 61.8 | 26.1 | -3.54 | 17.9 | 89.8 | 98 | 56.9 | 78.6
